The values below come from patent US20040082606A1, “Excitatory amino acid receptor antagonists” (priority 2003, published 2004).

SMILES strings stand for the structures.

For the assay, the system named is dural protein extravasation. As to the kind of experiment: Animal model of dural protein extravasation (electrical stimulation of the trigeminal ganglion, Evans Blue). The settings on record: administered orally to rats. In kind it is in vivo. As for the experimental part:
The following animal model may be employed to determine the ability of the compounds of Formula I or Formula Ia to inhibit protein extravasation, an exemplary functional assay of the neuronal mechanism of migraine.
A. Harlan Sprague-Dawley rats (225-325 g) or guinea pigs from Charles River Laboratories (225-325 g) are anesthetized with sodium pentobarbital intraperitoneally (65 mg/kg or 45 mg/kg respectively) and are placed in a stereotaxic frame David Kopf Instruments) with the incisor bar set at −3.5 mm for rats or −4.0 mm for guinea pigs. Following a midline sagital scalp incision, two pairs of bilateral holes are drilled through the skull (6 mm posterially, 2.0 and 4.0 mm laterally in rats; 4 mm posteriorly and 3.2 and 5.2 mm laterally in guinea pigs, all coordinates referenced to bregma). […]
D. A fluorescence microscope (Zeiss) equipped with a grating monchromator and a spectrophotometer is used to quantify the amount of Evans Blue dye in each sample. An excitation wavelength of approximately 535 nm is utilized and the emission intensity at 600 nm is determined. […] This facilitates the computer-controlled movement of the stage with fluorescence measurements at 25 points ([…]) on each dural sample. The mean and standard deviation of the measurements are determined by the computer. […]

Regarding `CCOC(=O)[C@@H]1C[C@H]2C[C@@H](CN3CC(F)(F)C[C@H]3C(=O)OCC)CC[C@H]2CN1.Cl.Cl` [3S,4aR,6S,8aR Ethyl 6-(((2S)-2-Ethoxycarbonyl)4,4-difluoropyrrolidinyl)methyl)-1,2,3,4,4a,5,6,7,8,8a-decahydroisoquinoline-3-carboxylate.dihydrochloride], the “ID100 (dose that inhibits the extravasation by 100%)” value is “approximately 0.01 ng/Kg”.
